Earlier results as cited in patent US8865699B2, “Amino triazoles as PI3K inhibitors” (Cellzome Ltd., priority 2007, dated 2014).

Columns and labels:
[1] = test system: MRL-lpr mouse model of systemic lupus erythematosus (SLE); conditions: intraperitoneal administration
[2] = test system: lymphocyte-dependent rheumatoid arthritis induced by direct collagen II injection; conditions: mouse, oral
[3] = test system: collagen II-antibody-induced arthritis; conditions: wildtype mice, oral
[4] = test system: animal model of myocardial infarction; conditions: dosing after myocardial reperfusion (up to 3 hours after)

Row | SMILES | CD4+ T-cell populations [1] | glomerulonephritis [1] | life span [1] | joint inflammation and damage [2] | clinical and histologic signs of arthritis [3] | edema and inflammation in response to multiple mediators [4]
1 | O=C1NC(=O)/C(=C\c2ccc3nccnc3c2)S1 [AS-605240] | reduced CD4+ T-cell populations | reduced glomerulonephritis | prolonged life span | decreased joint inflammation and damage | reduced clinical and histologic signs of collagen II-antibody-induced arthritis | –
2 | Nc1nc(N)c2nc(-c3cccc(O)c3)c(-c3cccc(O)c3)nc2n1 [TG100-115] | – | – | – | – | – | potently inhibits edema and inflammation
